We go through 23 molecules from patent publication US20240208912A1 (Mirati Therapeutics, Inc., priority 2021, published 2024).

The target of one assay is T1, PRMT5/MEP50 complex (Homo sapiens, UniProt O14744).
T1 construct: purchased Reaction Biology Corporation
The assay can be described thus: PRMT5:MEP50 HotSpot Assay (full-length histone H2A substrate, plus and minus MTA). It counts as biochemical. To be noted: IC50 + 2 μM MTA, in the presence of 2 μM MTA. The essentials:
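Tritiated product on full-length recombinant H2A was counted by scintillation after the stopped reaction was captured on filter paper. Substrate is histone H2A; conditions include plus and minus MTA.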

Assay [1] relates to HCT116 homozygous MTAP knockout cells. The assay can be described thus: Proliferation assay (CellTiter-Glo, 10 days) in HCT116 homozygous MTAP knockout cells. It counts as cell-based. The settings on record: CellTiter-Glo after 10 days of treatment, read-out: Proliferation IC50 (nM) HCT116 MTAP_KO. The method, boiled down: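 CellTiter-Glo viability read on day 11 gives a 10-day IC50. Dosing began one day after seeding, with a 1:10 split into fresh drug-containing medium on day 6. Cells are HCT116 lacking both MTAP alleles via CRISPR/Cas9, run alongside the parental line.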
(In general: In ATP-based viability assays light output follows the ATP content of the culture.)

Each structure is given as a SMILES string. Where two headings read alike, the source gives them in different places.

T1 sequence (O14744 2-637 limits assumed): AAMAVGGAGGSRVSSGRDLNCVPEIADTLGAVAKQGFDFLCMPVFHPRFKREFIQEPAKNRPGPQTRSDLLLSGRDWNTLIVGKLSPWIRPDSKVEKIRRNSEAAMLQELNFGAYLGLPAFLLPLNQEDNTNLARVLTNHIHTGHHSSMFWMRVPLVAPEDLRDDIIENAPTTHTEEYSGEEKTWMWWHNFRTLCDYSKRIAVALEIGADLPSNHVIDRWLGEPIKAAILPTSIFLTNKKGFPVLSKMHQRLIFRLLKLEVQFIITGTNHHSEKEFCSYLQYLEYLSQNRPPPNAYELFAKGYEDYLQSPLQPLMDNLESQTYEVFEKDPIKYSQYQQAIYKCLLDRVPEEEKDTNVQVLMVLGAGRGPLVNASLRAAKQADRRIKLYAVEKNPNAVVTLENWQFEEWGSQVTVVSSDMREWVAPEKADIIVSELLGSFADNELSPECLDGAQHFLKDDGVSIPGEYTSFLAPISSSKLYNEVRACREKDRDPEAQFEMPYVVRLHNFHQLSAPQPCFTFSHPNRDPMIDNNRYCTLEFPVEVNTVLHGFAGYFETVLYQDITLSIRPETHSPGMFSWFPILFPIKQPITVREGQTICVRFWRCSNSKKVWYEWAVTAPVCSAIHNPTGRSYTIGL
T1 sequence (Q9BQA1 2-342 partner limits assumed): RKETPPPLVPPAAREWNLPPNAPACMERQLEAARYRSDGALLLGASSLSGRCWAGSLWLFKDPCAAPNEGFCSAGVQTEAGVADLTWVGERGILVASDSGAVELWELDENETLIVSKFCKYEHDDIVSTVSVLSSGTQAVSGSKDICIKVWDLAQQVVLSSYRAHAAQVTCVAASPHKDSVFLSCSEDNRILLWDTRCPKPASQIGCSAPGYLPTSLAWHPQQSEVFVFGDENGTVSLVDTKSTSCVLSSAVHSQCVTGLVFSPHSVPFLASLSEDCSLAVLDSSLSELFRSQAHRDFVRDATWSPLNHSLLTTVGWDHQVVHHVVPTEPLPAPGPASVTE

On to `CCOc1cc(-c2cnn(C)c2-c2c(F)c(Cl)cc(OC3CC3)c2C#N)cc2c(CN)n[nH]c(=O)c12` (single isomer, unassigned) [Example 16-77, (P)-2-[4-[4-(aminomethyl)-8-ethoxy-1-oxo-2H-phthalazin-6-yl]-2-methyl-pyrazol-3-yl]-4-chloro-6-(cyclopropoxy)-3-fluoro-benzonitrile], for which the IC50 was determined as 4100 nM at PRMT5/MEP50 complex and 264 nM in assay [1].
Take `C[C@@H]1C[C@H]1Oc1ccc(F)c(-c2c(-c3ccc4c(=O)[nH]nc(CN)c4c3)cnn2C)c1C#N` (atropisomer, axis not shown; (P)) [Example 16-65, (P)-2-(4-(4-(aminomethyl)-1-oxo-1,2-dihydrophthalazin-6-yl)-1-methyl-1H-pyrazol-5-yl)-3-fluoro-6-((1R,2R)-2-methylcyclopropoxy)benzonitrile]: the figures for the IC50 (at PRMT5/MEP50 complex; in assay [1]) were 204 nM and 187 nM, respectively.
The corresponding values for `Cc1cc(OC2CC2)c(C#N)c(-c2c(-c3cc(Cl)c4c(=O)[nH]nc(CN)c4c3)cnn2C)c1F` (single isomer, unassigned) [Example 16-25, (P)-2-[4-[4-(aminomethyl)-8-chloro-1-oxo-2H-phthalazin-6-yl]-2-methyl-pyrazol-3-yl]-6-(cyclopropoxy)-3-fluoro-4-methyl-benzonitrile] are 964 nM and 664 nM.
Consider `Cn1ncc(-c2ccc3c(=O)[nH]c4c(c3c2)CCNC4)c1-c1sc2ccccc2c1C#N` [Example 18-1, 2-(1-methyl-4-(6-oxo-1,2,3,4,5,6-hexahydrobenzo[c][1,7]naphthyridin-9-yl)-1H-pyrazol-5-yl)benzo[b]thiophene-3-carbonitrile], for which the IC50 is greater than 10000 nM on PRMT5/MEP50 complex and 4140 nM in assay [1] (Homo sapiens, HCT-116, 240 h).
Regarding `Cn1ncc(-c2cc(Cl)c3c(=O)[nH]nc(CN)c3c2)c1-c1c(F)c(Cl)c2ccccc2c1C#N` (single isomer, unassigned) [Example 16-57, (P)-2-[4-[4-(aminomethyl)-8-chloro-1-oxo-2H-phthalazin-6-yl]-2-methyl-pyrazol-3-yl]-4-chloro-3-fluoro-naphthalene-1-carbonitrile], the IC50 on PRMT5/MEP50 complex worked out at 253 nM; in assay [1], 339 nM.
As for `Cn1ncc(-c2ccc3c(=O)[nH]nc(C4CNC4)c3c2)c1-c1sc2ccccc2c1C#N` [Example 9-12, 2-[4-[4-(azetidin-3-yl)-1-oxo-2H-phthalazin-6-yl]-2-methyl-pyrazol-3-yl]benzothiophene-3-carbonitrile], the IC50 worked out at 4250 nM on PRMT5/MEP50 complex and 10000 nM in assay [1] (Homo sapiens, HCT-116, 240 h).
`Cc1cnc2c(C#N)c(-c3c(-c4ccc5c(=O)[nH]nc(CN)c5c4)cnn3C)c(F)c(C)c2c1` (atropisomer, axis not shown; (M)) [Example 16-94, (M)-7-(4-(4-(aminomethyl)-1-oxo-1,2-dihydrophthalazin-6-yl)-1-methyl-1H-pyrazol-5-yl)-6-fluoro-3,5-dimethylquinoline-8-carbonitrile]: the figures for the IC50 (on PRMT5/MEP50 complex; in assay [1]) were 1140 nM and 231 nM, respectively.
In the case of `Cn1ncc(-c2ccc3c(=O)[nH]nc(CN)c3c2)c1-c1c(F)cc2c(c1C#N)OCO2` (atropisomer, axis not shown; (M)) [Example 16-88, (M)-5-[4-[4-(aminomethyl)-1-oxo-2H-phthalazin-6-yl]-2-methyl-pyrazol-3-yl]-6-fluoro-1,3-benzodioxole-4-carbonitrile], the results for the IC50 (on PRMT5/MEP50 complex; in assay [1]) were 181 nM and 173 nM, respectively.
With `CCn1ncc(-c2ccc3c(=O)[nH]nc(CN)c3c2)c1-c1sc2ccccc2c1C#N` [Example 19-1, 2-[4-[4-(aminomethyl)-1-oxo-2H-phthalazin-6-yl]-2-ethyl-pyrazol-3-yl]benzothiophene-3-carbonitrile], the IC50 came to 146 nM on PRMT5/MEP50 complex and 587 nM in assay [1] (Homo sapiens, HCT-116, 240 h).
With `C[C@@H]1C[C@H]1Oc1ccc(F)c(-c2c(-c3ccc4c(=O)[nH]nc(CN)c4c3)cnn2C)c1C#N` (atropisomer, axis not shown; (M)) [Example 16-66, (M)-2-(4-(4-(aminomethyl)-1-oxo-1,2-dihydrophthalazin-6-yl)-1-methyl-1H-pyrazol-5-yl)-3-fluoro-6-((1R,2R)-2-methylcyclopropoxy)benzonitrile], the IC50 at PRMT5/MEP50 complex was 107 nM; in assay [1], 35 nM.
For the molecule `Cc1cc(OC2CC2)c(C#N)c(-c2c(-c3ccc4c(=O)[nH]nc(CN)c4c3)cnn2C)c1F` (single isomer, unassigned) [Example 16-19, (P)-2-[4-[4-(aminomethyl)-1-oxo-2H-phthalazin-6-yl]-2-methyl-pyrazol-3-yl]-6-(cyclopropoxy)-3-fluoro-4-methyl-benzonitrile], the results for the IC50 (on PRMT5/MEP50 complex; in assay [1]) were 173 nM and 1070 nM, respectively.
The corresponding values for `Cc1c(F)c(-c2c(-c3cc(Cl)c4c(=O)[nH]nc(CN)c4c3)cnn2C)c(C#N)c2ccccc12` (single isomer, unassigned) [Example 16-59, (P)-2-[4-[4-(aminomethyl)-8-chloro-1-oxo-2H-phthalazin-6-yl]-2-methyl-pyrazol-3-yl]-3-fluoro-4-methyl-naphthalene-1-carbonitrile] are 318 nM and 215 nM.
With `CC(C)n1ncc(-c2ccc3c(=O)[nH]nc(CN)c3c2)c1-c1sc2ccccc2c1C#N` [Example 19-2, 2-(4-(4-(aminomethyl)-1-oxo-1,2-dihydrophthalazin-6-yl)-1-isopropyl-1H-pyrazol-5-yl)benzo[b]thiophene-3-carbonitrile], the IC50 was found to be 1650 nM on PRMT5/MEP50 complex and 4220 nM in assay [1] (Homo sapiens, HCT-116, 240 h).
For `Cn1ncc(-c2ccc3c(=O)[nH]nc(CN)c3c2)c1-c1sc2cnccc2c1C#N` [Example 4-273, 2-[4-[4-(aminomethyl)-1-oxo-2H-phthalazin-6-yl]-2-methyl-pyrazol-3-yl]thieno[2,3-c]pyridine-3-carbonitrile] the same measures were 376 nM and 1440 nM.
With `Cn1ncc(-c2ccc3c(=O)[nH]nc(CN)c3c2)c1-c1c(F)ccc(CC2CC2)c1C#N` (single isomer, unassigned) [Example 16-30, (M)-2-(4-(4-(aminomethyl)-1-oxo-1,2-dihydrophthalazin-6-yl)-1-methyl-1H-pyrazol-5-yl)-6-(cyclopropylmethyl)-3-fluorobenzonitrile], the IC50 on PRMT5/MEP50 complex was 36.4 nM; in assay [1], 17 nM.
In the case of `CCOc1cc(-c2cnn(C)c2-c2c(F)c(Cl)c3ccccc3c2C#N)cc2c(CN)n[nH]c(=O)c12` (single isomer, unassigned) [Example 16-79, (P)-2-[4-[4-(aminomethyl)-8-ethoxy-1-oxo-2H-phthalazin-6-yl]-2-methyl-pyrazol-3-yl]-4-chloro-3-fluoro-naphthalene-1-carbonitrile], the IC50 on PRMT5/MEP50 complex came out at 8.25 nM; in assay [1] it was 33 nM.
For `COc1cc(F)c(-c2c(-c3ccc4c(=O)[nH]nc(CN)c4c3)cnn2C)c(C#N)c1OC1CC1` (atropisomer, axis not shown; (M)) [Example 16-71, (M)-2-[4-[4-(aminomethyl)-1-oxo-2H-phthalazin-6-yl]-2-methyl-pyrazol-3-yl]-6-(cyclopropoxy)-3-fluoro-5-methoxy-benzonitrile] the same measures were 142 nM and 50 nM.
For `CCOc1cc(-c2cnn(C)c2-c2c(F)ccc(OC3CC3)c2C#N)cc2c(CN)n[nH]c(=O)c12` (atropisomer, axis not shown; (M)) [Example 16-74, (M)-2-[4-[4-(aminomethyl)-8-ethoxy-1-oxo-2H-phthalazin-6-yl]-2-methyl-pyrazol-3-yl]-6-(cyclopropoxy)-3-fluoro-benzonitrile] the same measures were 346 nM and 158 nM.
On to `Cn1ncc(-c2ccc3c(=O)[nH]nc(CN)c3c2)c1-c1c(F)cc2c(c1C#N)OCCC2` (atropisomer, axis not shown; (P)) [Example 16-37, (P)-7-[4-[4-(aminomethyl)-1-oxo-2H-phthalazin-6-yl]-2-methyl-pyrazol-3-yl]-6-fluoro-chromane-8-carbonitrile], for which the figures for the IC50 (at PRMT5/MEP50 complex; in assay [1]) were 102 nM and 216 nM, respectively.
The corresponding values for `Cn1ncc(-c2cc(Cl)c3c(=O)[nH]nc(CN)c3c2)c1-c1c(F)cc2ccccc2c1C#N` (single isomer, unassigned) [Example 16-11, (P)-2-(4-(4-(aminomethyl)-8-chloro-1-oxo-1,2-dihydrophthalazin-6-yl)-1-methyl-1H-pyrazol-5-yl)-3-fluoro-1-naphthonitrile] are 102 nM and 5 nM.
The corresponding values for `C[C@H]1C[C@@H]1Oc1ccc(F)c(-c2c(-c3ccc4c(=O)[nH]nc(CN)c4c3)cnn2C)c1C#N` (single isomer, unassigned) [Example 16-68] are 52.4 nM and 41 nM.
For `Cn1ncc(-c2cc(Cl)c3c(=O)[nH]nc(CN)c3c2)c1-c1c(F)c(Cl)cc(OC2CC2)c1C#N` (single isomer, unassigned) [Example 16-27, (P)-2-[4-[4-(aminomethyl)-8-chloro-1-oxo-2H-phthalazin-6-yl]-2-methyl-pyrazol-3-yl]-4-chloro-6-(cyclopropoxy)-3-fluoro-benzonitrile] the same measures were 2230 nM and 321 nM.
`Cn1ncc(-c2cc(Cl)c3c(=O)[nH]nc(CN)c3c2)c1-c1c(F)cc2ncc(Cl)cc2c1C#N` (single isomer, unassigned) [Example 16-62, (M)-6-[4-[4-(aminomethyl)-8-chloro-1-oxo-2H-phthalazin-6-yl]-2-methyl-pyrazol-3-yl]-3-chloro-7-fluoro-quinoline-5-carbonitrile]: the figures for the IC50 (on PRMT5/MEP50 complex; in assay [1]) were 28.7 nM and 7 nM, respectively.
